In patent US20210024483A1, “HETEROCYLCOALKENYL DERIVATIVES USEFUL AS AGONISTS OF THE GPR120 AND / OR GPR40” (Janssen Pharmaceutica NV, priority 2018, published 2021):
pEC50: −log10 of the molar value.

Tests used:
[1] = system: DIO mice (C57Bl6 on high fat diet); assay: GPR120 DIO Mice OGTT Screening; type: in vivo, mouse; conditions: 3 mg/kg, glucose AUC −30 to 90 min, change from vehicle
Procedure: GPR120 DIO Mice OGTT Screening
18-22 week old, C57Bl6 mice on a high fat diet (60% HFD) for 12-16 weeks (average body weight ˜37-41 g) were fasted for 6 hr, with removal of food occurring at 7 am on the morning of the study. The animals were sorted into treatment groups the day before the study by body weight. Animals outside the bounds of ˜30-50 g were left out of the study. The animals had been handled and shammed a total of 5-8 days (1-3 days immediately prior to the study). Glucose (in 1 mL syringes) was drawn up the morning of the study. Test compounds were kept spinning and were only drawn into 1 ml syringes prior to study commencement. […]
Animals were moved into the testing room at ˜9-11 am, to yield them time to acclimate. […] All groups were dosed 30 minutes prior to glucose administration at a dose volume of 10 ml/kg (the dose volume was calculated separately for each individual animal). […]
Thirty minutes after the first dose (with test compound) animals were bled again for a second baseline, or T=0, and immediately dosed with glucose (20% solution; TEKNOVA, 250 ml sterile bottle w/catalogue number G0525) via a PO injection. The exact dose volume for glucose was also calculated separately for each individual animal.
Blood glucose was measured at 15, 30, 45, 60, and 90 minutes post-glucose administration via the snipped tail. […]

GPR40 = GPR40 (UniProt O14842); assay: GPR40 Calcium Flux Assay; type: cell-based; conditions: transfected HEK293 cells stably expressing human or rat GPR40; species not given
Procedure: Biological Example 3: In Vitro Assay
Compounds were tested in a calcium flux assay using transfected HEK293 cells stably expressing either human GPR40 or rat GPR40. Human GPR40 expressing cells were cultured in DMEM-High Glucose media supplemented with 10% fetal bovine serum, 1×L-Glutamine, 1× Penicillin/Streptomycin and 500 μg/mL G418. Rat GPR40 expressing cells were cultured in DMEM-High Glucose media supplemented with 10% fetal bovine serum and 1 μg/mL puromycin. Cells were plated into poly-D-lysine coated 384-well plates and cultured overnight in a 37° C. humidified tissue culture incubator under 5% CO2/90% O2 atmosphere.
On the day of the experiment, the culture media was replaced with assay buffer (HBSS, 20 mM HEPES, 0.1% BSA) and the cells incubated at 37° C. for 1 h. Calcium-sensitive fluorescent dye (Fluo 8 No-Wash Calcium Dye, ABD Bioquest) was then added and the cells incubated for another 30 min at 37° C. followed by 15 min at room temperature while protected from the light. The cell plate and a plate of diluted compounds of Formula (I) were loaded into a fluorescent plate reader that added compounds onto the cells while measuring the fluorescence intensity of each well. The plate reader recorded fluorescence intensity at 1 second intervals for 8 min and provided the data for analysis in an Excel format. EC50 values were calculated using Prism (GraphPad) software.

pEC50 (GPR40): < 5.00
Compound: Cc1c(CCC(=O)O)ccc(OCC2=C(c3ccc(Cl)cc3)COCC2)c1C [ID No. 745, 3-[4-[[5-(4-chlorophenyl)-3,6-dihydro-2H-pyran-4-yl]methoxy]-2,3-dimethyl-phenyl]propanoic acid]
DIO lowering (−30 to 90) [1]: −63%
